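Results reflect a 48-hour exposure of cells in 96-well plates to compound at five concentrations. At the GI50, growth is halved.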 The source made the active and inactive calls. Cut-off read from the data, not from the text of the source: active = GI50 up to about 1.1 µM and inactive = higher.
How the values were obtained:
Assay in all cases: NCI anticancer screen, dose series, 48 h
786-0 = test system: 786-0
A549 = test system: A549
CAKI-1 = test system: CAKI-1
DU-145 = test system: DU-145
HT-29 = test system: HT-29
KM12 = test system: KM12
MDA-MB-435 = test system: MDA-MB-435
MOLT-4 = test system: MOLT-4
Malme-3M = test system: Malme-3M
NCI/ADR-RES = test system: NCI/ADR-RES
OVCAR-3 = test system: OVCAR-3
OVCAR-4 = test system: OVCAR-4
OVCAR-5 = test system: OVCAR-5
SF-268 = test system: SF-268
SF-295 = test system: SF-295
SNB-19 = test system: SNB-19
SNB-75 = test system: SNB-75
U-251 = test system: U-251
SK-OV-3 = test system: SK-OV-3
SR = test system: SR

SMILES	GI50 (786-0)	GI50 (A549)	GI50 (CAKI-1)	GI50 (DU-145)	GI50 (HT-29)	GI50 (KM12)	GI50 (MDA-MB-435)	GI50 (MOLT-4)	GI50 (Malme-3M)	GI50 (NCI/ADR-RES)	GI50 (OVCAR-3)	GI50 (OVCAR-4)	GI50 (OVCAR-5)	GI50 (SF-268)	GI50 (SF-295)	GI50 (SNB-19)	GI50 (SNB-75)	GI50 (U-251)	GI50 (SK-OV-3)	GI50 (SR)
CC1(C)CC2C(=O)c3ccccc3NC2c2ccccc21 (centres undefined)	3.94 µM (inactive)	6.11 µM (inactive)	6.32 µM (inactive)	3.6 µM (inactive)	3.48 µM (inactive)	4.3 µM (inactive)	0.326 µM (active)	0.735 µM (active)	4.99 µM (inactive)	3.49 µM (inactive)	4.29 µM (inactive)	57 µM (inactive)	> 26.2 µM (inactive)	14.6 µM (inactive)	1.84 µM (inactive)	5.79 µM (inactive)	4.18 µM (inactive)	5.47 µM (inactive)	–	–
Cc1n[n+]([O-])c(C)cc1[N+](=O)[O-]	27.9 µM (inactive)	22 µM (inactive)	–	21.7 µM (inactive)	14.1 µM (inactive)	–	15.6 µM (inactive)	–	20.9 µM (inactive)	20.6 µM (inactive)	14.5 µM (inactive)	19.4 µM (inactive)	19.5 µM (inactive)	46 µM (inactive)	–	39.4 µM (inactive)	23.8 µM (inactive)	22.4 µM (inactive)	93.8 µM (inactive)	–
C/C(=C/C(=O)Nn1c(Cc2ccccc2)n[nH]c1=O)C(=O)O	> 100 µM (inactive)	> 100 µM (inactive)	> 100 µM (inactive)	> 100 µM (inactive)	> 100 µM (inactive)	> 100 µM (inactive)	> 100 µM (inactive)	> 100 µM (inactive)	> 100 µM (inactive)	> 100 µM (inactive)	> 100 µM (inactive)	> 100 µM (inactive)	> 100 µM (inactive)	> 100 µM (inactive)	> 100 µM (inactive)	> 100 µM (inactive)	> 100 µM (inactive)	> 100 µM (inactive)	> 100 µM (inactive)	–
O=C1/C(=C/c2ccc(Cl)cc2)N=C(c2ccccc2)N1C1Nc2cc3c(cc2S1)NC(N1C(=O)/C(=C/c2ccc(Cl)cc2)N=C1c1ccccc1)S3 (centres undefined)	87.3 µM (inactive)	–	> 100 µM (inactive)	46.3 µM (inactive)	52.6 µM (inactive)	54 µM (inactive)	52.8 µM (inactive)	4.14 µM (inactive)	–	63.8 µM (inactive)	49.8 µM (inactive)	59.2 µM (inactive)	> 100 µM (inactive)	27 µM (inactive)	73.5 µM (inactive)	–	–	32.3 µM (inactive)	> 100 µM (inactive)	6.18 µM (inactive)
C/C(O)=C/C(=O)c1[nH]c(C(=O)O)cc1C1CCN(Cc2ccccc2)C1=O (centres undefined)	21 µM (inactive)	26.9 µM (inactive)	42.3 µM (inactive)	18.3 µM (inactive)	29.2 µM (inactive)	29.9 µM (inactive)	27.3 µM (inactive)	20 µM (inactive)	20 µM (inactive)	12 µM (inactive)	21.7 µM (inactive)	34 µM (inactive)	25.2 µM (inactive)	20 µM (inactive)	17.9 µM (inactive)	22.7 µM (inactive)	20.8 µM (inactive)	34.2 µM (inactive)	22.8 µM (inactive)	–
COc1cc2c(c(OC)c1OC)-c1ccc(SC)c(=O)cc1[C@@H](OC(C)=O)CC2	< 0.01 µM (active)	< 0.01 µM (active)	< 0.01 µM (active)	< 0.01 µM (active)	< 0.01 µM (active)	< 0.01 µM (active)	< 0.01 µM (active)	< 0.01 µM (active)	< 0.01 µM (active)	< 0.01 µM (active)	< 0.01 µM (active)	> 100 µM (inactive)	–	< 0.01 µM (active)	< 0.01 µM (active)	< 0.01 µM (active)	< 0.0152 µM (active)	< 0.01 µM (active)	–	–
